Results published in ChEMBL document CHEMBL5230155, “Recent contributions of quinolines to antimalarial and anticancer drug discovery research” (Eur J Med Chem, 2021).
Converted amounts (≈) assume the structure as drawn.

How the values were obtained:
[1] = system: Plasmodium falciparum; assay: Antimalarial activity against CQ-sensitive Plasmodium falciparum 3D7; format: functional, organism-based
[2] = system: Plasmodium berghei; assay: Antimalarial activity against liver stage Plasmodium berghei; format: functional, organism-based
[3] = system: MCF7; assay: Antiproliferative activity against human MCF7 cells; format: functional, cell-based; details: Homo sapiens, MCF7
[4] = system: Hep 3B2; assay: Cytotoxicity against human Hep3B cells assessed as relative value at 15 uM after 48 hrs by MTS method; format: functional
[5] = system: Hep 3B2; assay: Cytotoxicity against human Hep3B cells; format: functional, cell-based
[6] = Cytotoxicity against human SLMT-1 cells
[7] = system: PC-3; assay: Antiproliferative activity against human PC-3 cells; format: functional, cell-based
[8] = system: KG-1; assay: Cytotoxicity against human KG-1 cells; format: functional, cell-based
[9] = system: Raji; assay: Cytotoxicity against human Raji cells; format: functional, cell-based
[10] = system: MDA-MB-231; assay: Cytotoxicity against human MDA-MB-231 cells; format: functional, cell-based
[11] = system: MV4-11; assay: Antiproliferative activity against human MV4-11 cells; format: functional, cell-based
[12] = biological target: Histone-lysine N-methyltransferase, H3 lysine-79 specific (Homo sapiens, UniProt Q8TEK3); assay: Inhibition of DOT1L (unknown origin)
Histone-lysine N-methyltransferase, H3 lysine-79 specific, sequence (Q8TEK3 whole entry): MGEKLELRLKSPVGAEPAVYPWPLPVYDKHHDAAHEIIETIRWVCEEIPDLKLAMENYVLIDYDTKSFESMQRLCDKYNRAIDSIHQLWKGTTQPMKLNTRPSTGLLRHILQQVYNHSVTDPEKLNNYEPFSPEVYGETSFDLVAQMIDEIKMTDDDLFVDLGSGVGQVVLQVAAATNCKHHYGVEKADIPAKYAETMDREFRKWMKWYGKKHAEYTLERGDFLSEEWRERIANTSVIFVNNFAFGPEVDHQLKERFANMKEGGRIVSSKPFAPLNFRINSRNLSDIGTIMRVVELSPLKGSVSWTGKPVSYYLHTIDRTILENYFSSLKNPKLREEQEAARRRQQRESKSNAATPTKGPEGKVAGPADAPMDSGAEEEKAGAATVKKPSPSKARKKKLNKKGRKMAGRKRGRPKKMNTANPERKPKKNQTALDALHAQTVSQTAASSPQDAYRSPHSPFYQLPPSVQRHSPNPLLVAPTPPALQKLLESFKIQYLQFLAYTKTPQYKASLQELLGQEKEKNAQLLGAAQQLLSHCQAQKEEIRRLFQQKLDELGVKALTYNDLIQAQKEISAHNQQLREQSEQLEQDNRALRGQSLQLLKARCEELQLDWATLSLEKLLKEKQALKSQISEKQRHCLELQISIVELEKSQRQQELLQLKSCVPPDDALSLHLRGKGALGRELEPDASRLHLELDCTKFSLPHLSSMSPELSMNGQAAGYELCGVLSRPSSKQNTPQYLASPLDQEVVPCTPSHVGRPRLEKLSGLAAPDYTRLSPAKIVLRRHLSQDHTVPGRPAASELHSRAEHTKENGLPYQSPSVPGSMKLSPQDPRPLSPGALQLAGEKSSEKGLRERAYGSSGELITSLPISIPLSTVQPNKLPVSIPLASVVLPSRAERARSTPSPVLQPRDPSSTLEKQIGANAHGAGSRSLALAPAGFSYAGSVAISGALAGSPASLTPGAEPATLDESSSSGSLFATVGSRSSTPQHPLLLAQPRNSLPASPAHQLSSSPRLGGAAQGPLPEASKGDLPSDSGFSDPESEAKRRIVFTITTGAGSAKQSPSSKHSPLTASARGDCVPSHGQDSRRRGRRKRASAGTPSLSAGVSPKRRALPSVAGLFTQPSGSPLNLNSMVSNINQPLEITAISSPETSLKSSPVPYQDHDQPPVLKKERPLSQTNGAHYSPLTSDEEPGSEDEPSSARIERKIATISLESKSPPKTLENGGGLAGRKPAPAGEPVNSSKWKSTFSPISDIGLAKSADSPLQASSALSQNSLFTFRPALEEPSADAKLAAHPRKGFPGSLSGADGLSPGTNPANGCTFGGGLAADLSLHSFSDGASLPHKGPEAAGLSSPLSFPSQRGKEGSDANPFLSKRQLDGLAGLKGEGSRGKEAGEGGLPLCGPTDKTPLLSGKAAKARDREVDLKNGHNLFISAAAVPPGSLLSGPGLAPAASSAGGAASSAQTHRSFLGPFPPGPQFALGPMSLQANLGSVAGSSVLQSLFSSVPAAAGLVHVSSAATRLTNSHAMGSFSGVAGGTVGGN

[13] = system: HepG2; assay: Cytotoxicity against human HepG2 cells; format: functional, cell-based; details: Homo sapiens, HepG2
[14] = system: SK-OV-3; assay: Antiproliferative activity against human SK-OV-3 cells; format: functional, cell-based
[15] = system: NCI-H460; assay: Antiproliferative activity against human NCI-H460 cells; format: functional, cell-based
[16] = system: BEL-7404 tumor cell line; assay: Antiproliferative activity against human BEL-7404 cells; format: functional, cell-based
[17] = system: HepG2; assay: Antitumor activity against human HepG2 cells xenografted in nude mouse assessed as reduction in tumor increment rate at 20 mg/kg/day (reference value: 100%); format: functional; set-up: scale not given: the % may be the effect or the level left
[18] = system: A549; assay: Cytotoxicity against human A549 cells; format: functional, cell-based
[19] = system: K562; assay: Cytotoxicity against human K562 cells; format: functional, cell-based
[20] = biological target: Phosphatidylinositol 4,5-bisphosphate 3-kinase catalytic subunit gamma isoform (Homo sapiens, UniProt P48736); assay: Inhibition of PI3K gamma (unknown origin)
Phosphatidylinositol 4,5-bisphosphate 3-kinase catalytic subunit gamma isoform, sequence (P48736 whole entry, canonical isoform): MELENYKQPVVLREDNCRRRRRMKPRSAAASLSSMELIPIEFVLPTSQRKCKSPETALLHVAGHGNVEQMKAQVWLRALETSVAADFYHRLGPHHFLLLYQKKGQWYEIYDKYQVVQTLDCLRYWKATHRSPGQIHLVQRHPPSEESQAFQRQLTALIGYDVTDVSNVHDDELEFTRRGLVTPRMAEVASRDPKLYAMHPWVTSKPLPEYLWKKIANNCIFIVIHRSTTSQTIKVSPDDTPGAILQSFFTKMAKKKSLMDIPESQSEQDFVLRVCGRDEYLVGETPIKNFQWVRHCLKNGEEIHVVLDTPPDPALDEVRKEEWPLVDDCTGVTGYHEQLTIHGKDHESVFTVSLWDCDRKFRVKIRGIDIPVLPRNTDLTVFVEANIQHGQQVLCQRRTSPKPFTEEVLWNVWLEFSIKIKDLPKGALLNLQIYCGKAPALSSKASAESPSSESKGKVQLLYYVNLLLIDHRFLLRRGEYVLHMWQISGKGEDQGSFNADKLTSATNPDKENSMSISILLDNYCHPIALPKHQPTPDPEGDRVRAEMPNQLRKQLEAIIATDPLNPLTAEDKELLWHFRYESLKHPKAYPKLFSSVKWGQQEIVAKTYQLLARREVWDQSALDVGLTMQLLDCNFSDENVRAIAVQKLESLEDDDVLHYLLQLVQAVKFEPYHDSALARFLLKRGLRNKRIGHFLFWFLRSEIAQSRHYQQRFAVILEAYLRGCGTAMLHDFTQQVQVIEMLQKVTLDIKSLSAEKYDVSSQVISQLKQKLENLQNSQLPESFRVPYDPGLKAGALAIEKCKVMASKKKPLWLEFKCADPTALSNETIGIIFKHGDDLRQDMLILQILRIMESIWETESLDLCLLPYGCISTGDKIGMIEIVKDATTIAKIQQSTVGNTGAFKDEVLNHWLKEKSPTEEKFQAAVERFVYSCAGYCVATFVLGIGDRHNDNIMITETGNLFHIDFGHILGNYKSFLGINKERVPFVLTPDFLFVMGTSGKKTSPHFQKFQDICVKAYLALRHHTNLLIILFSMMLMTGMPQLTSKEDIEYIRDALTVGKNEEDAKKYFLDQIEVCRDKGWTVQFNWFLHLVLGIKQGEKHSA

[21] = system: Plasmodium falciparum; assay: Antimalarial activity against CQ-resistant Plasmodium falciparum W2; format: functional, organism-based
[22] = system: Plasmodium falciparum; assay: Antimalarial activity against CQ-sensitive Plasmodium falciparum D6; format: functional, organism-based
[23] = system: Plasmodium berghei; assay: Antiplasmodial activity against Plasmodium berghei infected in mouse assessed as increase in mean survival time at 100 mg/kg, po administered for 3 days (reference value: 7.6 day); format: functional; details: time 3 day
[24] = system: Plasmodium falciparum; assay: Antimalarial activity against Plasmodium falciparum 3D7; format: functional, organism-based
[25] = system: Hemozoin; assay: Inhibition of beta-hematin formation
[26] = system: Plasmodium berghei; assay: Antimalarial activity against Plasmodium berghei ANKA infected in mouse assessed increase in survival time at 20 mg/kg/day, ip for 4 days; format: functional; details: time 4 day
[27] = system: Plasmodium berghei; assay: Antiplasmodial activity against Plasmodium berghei ANKA infected in mouse assessed as reduction in parasitaemia at 20 mg/kg/day, ip administered for 4 days; format: functional; set-up: scale not given: the % may be the effect or the level left; details: time 4 day
[28] = system: Plasmodium berghei; assay: Antiplasmodial activity against Plasmodium berghei infected in mouse assessed as reduction in parasitaemia at 200 mg/kg/day, ip administered for 4 days; format: functional; set-up: scale not given: the % may be the effect or the level left; details: time 4 day
[29] = system: Hemozoin; assay: Inhibition of beta-hematin formation relative to control; details: concentration not given here
[30] = system: A2780; assay: Induction of apoptosis in human A2780 cells assessed as accumulation at G2/M phase at 5 uM (reference value: 10%); format: functional
[31] = system: MCF7; assay: Induction of apoptosis in human MCF7 cells assessed as accumulation at G2/M phase at 10 uM (reference value: 10%); format: functional
[32] = system: Plasmodium falciparum; assay: Antimalarial activity against multidrug resistant Plasmodium falciparum Dd2; format: functional, organism-based
[33] = system: Plasmodium falciparum; assay: Antimalarial activity against CQ-resistant Plasmodium falciparum 7G8; format: functional, organism-based
[34] = system: Lymphocyte; assay: Cytotoxicity against mouse spleen lymphocytes; format: toxicity, cell-based
[35] = system: Plasmodium berghei; assay: Antimalarial activity against Plasmodium berghei ANKA infected in mouse assessed increase in survival time (reference value: 6.8 day); format: functional
[36] = system: Plasmodium falciparum; assay: Antimalarial activity against CQ-resistant Plasmodium falciparum RKL9; format: functional, organism-based
[37] = system: HeLa; assay: Cytotoxicity against human HeLa cells at 2.5 uM; format: functional
[38] = system: HCT-116; assay: Cytotoxicity against human HCT-116 cells; format: functional, cell-based
[39] = biological target: Serine/threonine-protein kinase mTOR (Homo sapiens, UniProt P42345); assay: Inhibition of mTOR (unknown origin)
[40] = biological target: Dual specificity mitogen-activated protein kinase kinase 1 (Homo sapiens, UniProt Q02750); assay: Inhibition of MEK1 (unknown origin)
Dual specificity mitogen-activated protein kinase kinase 1, sequence (Q02750 whole entry): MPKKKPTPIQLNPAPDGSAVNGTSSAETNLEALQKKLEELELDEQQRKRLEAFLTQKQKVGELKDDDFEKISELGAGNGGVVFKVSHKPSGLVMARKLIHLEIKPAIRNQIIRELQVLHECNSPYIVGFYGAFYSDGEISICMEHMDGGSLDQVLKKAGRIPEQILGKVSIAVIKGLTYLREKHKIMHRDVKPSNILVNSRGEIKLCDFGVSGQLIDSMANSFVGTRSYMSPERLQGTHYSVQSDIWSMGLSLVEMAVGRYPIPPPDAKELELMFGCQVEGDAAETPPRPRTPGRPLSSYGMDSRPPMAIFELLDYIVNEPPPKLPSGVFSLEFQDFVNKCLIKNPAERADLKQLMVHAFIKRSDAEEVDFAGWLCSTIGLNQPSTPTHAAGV

[41] = system: PANC-1; assay: Antiproliferative activity against human PANC-1 cells; format: functional, cell-based
[42] = system: MIA PaCa-2; assay: Antiproliferative activity against human MIA PaCa-2 cells; format: functional, cell-based
[43] = system: HT-29; assay: Antiproliferative activity against human HT-29 cells; format: functional, cell-based
[44] = system: A-375; assay: Antiproliferative activity against human A-375 cells; format: functional, cell-based
[45] = Antiproliferative activity against HUVEC cells; format: toxicity, cell-based; details: human
[46] = biological target: Hepatocyte growth factor receptor (Homo sapiens, UniProt P08581); assay: Inhibition of c-Met (unknown origin)
[47] = system: Leukemia cell; assay: Antiproliferative activity against human Leukemia cells; format: functional
[48] = Antiproliferative activity against human CNS cells; format: functional; details: CNS cell
[49] = system: Breast carcinoma cell; assay: Antiproliferative activity against human breast cancer cells; format: functional
[50] = biological target: Epidermal growth factor receptor (Homo sapiens, UniProt P00533)
Epidermal growth factor receptor, sequence (P00533 whole entry): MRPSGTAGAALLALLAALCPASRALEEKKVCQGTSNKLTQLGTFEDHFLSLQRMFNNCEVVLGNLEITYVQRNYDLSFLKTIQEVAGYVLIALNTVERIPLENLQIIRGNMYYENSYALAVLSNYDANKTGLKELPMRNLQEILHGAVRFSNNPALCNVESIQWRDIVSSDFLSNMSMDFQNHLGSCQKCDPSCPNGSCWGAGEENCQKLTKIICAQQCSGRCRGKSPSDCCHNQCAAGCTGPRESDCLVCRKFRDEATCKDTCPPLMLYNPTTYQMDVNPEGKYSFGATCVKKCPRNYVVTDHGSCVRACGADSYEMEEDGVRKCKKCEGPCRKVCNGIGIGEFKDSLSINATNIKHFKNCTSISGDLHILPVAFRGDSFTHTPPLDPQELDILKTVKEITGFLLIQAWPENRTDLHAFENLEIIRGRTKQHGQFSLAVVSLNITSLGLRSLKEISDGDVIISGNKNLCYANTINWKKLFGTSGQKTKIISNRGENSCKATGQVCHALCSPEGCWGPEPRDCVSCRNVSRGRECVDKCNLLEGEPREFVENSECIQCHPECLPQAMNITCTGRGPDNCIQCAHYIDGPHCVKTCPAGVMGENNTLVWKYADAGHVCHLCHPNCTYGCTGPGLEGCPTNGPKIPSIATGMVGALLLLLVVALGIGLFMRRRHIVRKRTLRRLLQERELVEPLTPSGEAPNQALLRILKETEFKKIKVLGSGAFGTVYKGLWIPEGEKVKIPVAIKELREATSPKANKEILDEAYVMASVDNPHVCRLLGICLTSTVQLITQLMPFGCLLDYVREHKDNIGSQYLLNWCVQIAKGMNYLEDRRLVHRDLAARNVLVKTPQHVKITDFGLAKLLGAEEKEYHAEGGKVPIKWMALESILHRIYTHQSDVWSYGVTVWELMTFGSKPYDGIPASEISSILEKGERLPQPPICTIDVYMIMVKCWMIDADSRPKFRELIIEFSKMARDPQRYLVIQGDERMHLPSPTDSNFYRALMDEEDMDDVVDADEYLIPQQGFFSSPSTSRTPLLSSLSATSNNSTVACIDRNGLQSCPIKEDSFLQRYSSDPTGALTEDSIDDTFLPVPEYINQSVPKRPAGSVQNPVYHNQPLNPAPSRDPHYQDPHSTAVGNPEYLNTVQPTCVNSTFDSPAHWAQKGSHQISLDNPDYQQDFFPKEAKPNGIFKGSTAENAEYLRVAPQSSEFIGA

Question: With COc1cc(C)c2c(Oc3cccc(C(F)(F)F)c3)c(OC)cc(NC(C)CCON)c2n1 (stereo not drawn) as the molecule, how does the IC50 [1] read?
Answer: 380 nM

Question: And the IC50 [2]?
Answer: 5400 nM

Question: Which results are given for O=S(=O)(Nc1cccc2cccnc12)c1cccc2cccnc12?
Answer: IC50 [3]: 1230 nM; fold change (FC) [4]: 0.23; IC50 [5]: 1230 nM; IC50 [6]: 1230 nM

Question: With Cc1cc(Nc2ccc(NC(=O)c3ccc(Nc4ccnc5ccccc45)cc3)cc2)nc(N)n1 as the molecule, how does the IC50 [7] read?
Answer: 1700 nM

Question: What about the IC50 [8] of the same molecule?
Answer: 1700 nM

Question: What about the IC50 [9] of the same molecule?
Answer: 1700 nM

Question: What about the IC50 [10] of the same molecule?
Answer: 1700 nM

Question: Which IC50 [11] does the source give for CCN(CCNC(=O)Nc1ccc(C(C)(C)C)cc1)c1nc(C)cc(Nc2ccc3nc(C)cc(N)c3c2)n1 here?
Answer: 1620 nM

Question: And the IC50 [12]?
Answer: 5720 nM

Question: For Cc1cc2nc(-c3cc4ccccc4nc3Cl)[nH]c2cc1C, which IC50 [13] is on record?
Answer: 7540 nM

Question: And the IC50 [14]?
Answer: 7540 nM

Question: And the IC50 [15]?
Answer: 7540 nM

Question: And the IC50 [16]?
Answer: 7540 nM

Question: And the Activity [17]?
Answer: 19.5%

Question: For COc1ccc(-c2cc(C(=O)N/N=C(\C=C\c3ccc(Cl)cc3)c3ccc(N)cc3)c3ccccc3n2)cc1, which IC50 [18] is on record?
Answer: 1910 nM

Question: And the IC50 [19]?
Answer: 1910 nM

Question: And the IC50 [20]?
Answer: 52 nM

Question: For Cc1c(Cl)ccc2cc(/C=C/C(=O)c3ccc(Br)cc3)c(Cl)nc12, which IC50 [21] is on record?
Answer: 38 nM

Question: What about the IC50 [22] of the same molecule?
Answer: < 50 nM

Question: What about the Time [23] of the same molecule?
Answer: 11.8 days

Question: Which results are given for CCN(CC)CCCC(C)Nc1ccnc2cc(Cl)ccc12 (stereo not drawn) [CHLOROQUINE]?
Answer: EC50 [24]: 165 nM; IC50 [25]: 890000 nM; Time [26]: 24.99 days; Activity [27]: 0.32%; Activity [28]: 100%; Time [23]: 26.2 days; inhibition [29]: 52.1%

Question: For COc1cc(C(=O)/C=C/c2c(Cl)nc3c(C(=O)c4ccccc4)cccc3c2OC)cc(OC)c1OC, which Activity [30] is on record?
Answer: 50%

Question: What about the Activity [31] of the same molecule?
Answer: 50%

Question: With Clc1ccc2c(NCCCN3CCC(Nc4ccnc5cc(Cl)ccc45)CC3)ccnc2c1 as the molecule, how does the IC50 [32] read?
Answer: 0.36 nM

Question: What about the IC50 [22] of the same molecule?
Answer: 0.15 nM

Question: And the IC50 [33]?
Answer: 0.33 nM

Question: What about the LC50 [34] of the same molecule?
Answer: 190 nM

Question: Which results are given for COC(=O)[C@@H](NC(=O)CSc1ccnc2cc(Cl)ccc12)C(C)C?
Answer: inhibition ([25]; concentration not given here): 61.1%; Time [35]: 24.6 days

Question: Which IC50 [2] does the source give for COc1cc(NC(C)CCCN)c2ncccc2c1 (stereo not drawn) [PRIMAQUINE] here?
Answer: 1100 nM

Question: For Cc1ccc(/C=C2/SC(c3ccc(Cl)cc3)N(Nc3cc(C)c4ccccc4n3)C2=O)cc1 (stereo not drawn), which IC50 [1] is on record?
Answer: 0.423 µg/mL

Question: And the IC50 [36]?
Answer: 0.824 µg/mL (≈ 1.75 µM)

Question: And the Activity [28]?
Answer: 73.4%

Question: For CCOc1ccc(Nc2cc(C)nc3ccc(Cl)cc23)cc1, which Activity [37] is on record?
Answer: 8%

Question: For Cc1c(Cc2cccc(N(C)S(=O)(=O)CCCNCCCC(=O)N3CCN(c4ccc(Nc5c(C(N)=O)cnc6ccc(-c7cnc8ccccc8c7)cc56)cc4C(F)(F)F)CC3)c2)c(=O)oc2cc(OC(=O)N(C)C)ccc12, which GI50 [38] is on record?
Answer: 4660 nM

Question: What about the IC50 [39] of the same molecule?
Answer: 190 nM

Question: What about the IC50 [40] of the same molecule?
Answer: 980 nM

Question: For COc1ccc(/C=C\c2cc(OC)c(OC)c(OC)c2)cc1O [COMBRETASTATIN A4], which IC50 [15] is on record?
Answer: 180 nM

Question: What about the IC50 [41] of the same molecule?
Answer: 180 nM

Question: What about the IC50 [42] of the same molecule?
Answer: 180 nM

Question: What about the IC50 [43] of the same molecule?
Answer: 180 nM

Question: What about the IC50 [44] of the same molecule?
Answer: 180 nM

Question: What about the IC50 [45] of the same molecule?
Answer: 1560 nM

Question: Which Activity [37] does the source give for COc1cc2nc(N3CCCN(C)CC3)nc(NC3CCN(Cc4ccccc4)CC3)c2cc1OC here?
Answer: 63%

Question: Which results are given for COc1nc2ccccc2cc1/C=C1/C=C(c2ccccc2)NC1=O?
Answer: IC50 [15]: 1900 nM; IC50 [41]: 1900 nM; IC50 [42]: 1900 nM; IC50 [43]: 1900 nM; IC50 [44]: 1900 nM

Question: Which results are given for COc1cc2nccc(Oc3ccc(NC(=O)C4(C(=O)Nc5ccc(F)cc5)CC4)cc3)c2cc1OC(=O)c1ccc(N)cc1?
Answer: IC50 [46]: 19 nM; GI50 [47]: 290 nM; GI50 [48]: 290 nM; GI50 [49]: 290 nM

Question: Which IC50 [50] does the source give for COc1ccc2nc(Cl)c(C3CC(c4ccc(C)cc4)=NN3c3nc(C)c(C(=O)Nc4ccccc4)s3)cc2c1 (stereo not drawn) here?
Answer: 42.5 nM
